Measured values: ChEMBL document CHEMBL1201862, “PubChem BioAssay data set” (2004)
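Cultured in 96-well plates, cells were exposed to test compound for 48 hours across five concentrations. GI50 marks 50% less growth.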 The source made the active and inactive calls. No stated cut-off is given here; in the data, active = GI50 up to about 1.1 µM and inactive = higher.

Assays:
Test in all cases: NCI-60 cell line screen, 48 h
UACC-62 = system: UACC-62
HT-29 = system: HT-29
NCI/ADR-RES = system: NCI/ADR-RES
CCRF-CEM = system: CCRF-CEM
KM12 = system: KM12
SN12C = system: SN12C
T47D = system: T47D
SK-MEL-28 = system: SK-MEL-28
RPMI-8226 = system: RPMI-8226
TK-10 = system: TK-10
Malme-3M = system: Malme-3M
A498 = system: A498
RXF 393 = system: RXF 393
HCT-15 = system: HCT-15
MDA-N = system: MDA-N
NCI-H226 = system: NCI-H226
HCC 2998 = system: HCC 2998
UACC-257 = system: UACC-257
SK-MEL-5 = system: SK-MEL-5

| SMILES | GI50 (UACC-62) | GI50 (HT-29) | GI50 (NCI/ADR-RES) | GI50 (CCRF-CEM) | GI50 (KM12) | GI50 (SN12C) | GI50 (T47D) | GI50 (SK-MEL-28) | GI50 (RPMI-8226) | GI50 (TK-10) | GI50 (Malme-3M) | GI50 (A498) | GI50 (RXF 393) | GI50 (HCT-15) | GI50 (MDA-N) | GI50 (NCI-H226) | GI50 (HCC 2998) | GI50 (UACC-257) | GI50 (SK-MEL-5) |
| --- | --- | --- | --- | --- | --- | --- | --- | --- | --- | --- | --- | --- | --- | --- | --- | --- | --- | --- | --- |
| CC1=NN(c2nc(N)nc(/C(C#N)=C/c3ccc([N+](=O)[O-])o3)n2)C(C)(C)C1 | 2.19 µM (inactive) | 2.09 µM (inactive) | 10.8 µM (inactive) | 1.3 µM (inactive) | 13.9 µM (inactive) | 1.88 µM (inactive) | 2.61 µM (inactive) | 5.06 µM (inactive) | 3.01 µM (inactive) | 2 µM (inactive) | 2.01 µM (inactive) | 17.8 µM (inactive) | 1.75 µM (inactive) | 1.42 µM | 3.05 µM (inactive) | 2.24 µM (inactive) | 15.8 µM (inactive) | 10 µM (inactive) | 5.4 µM (inactive) |
| Oc1c(OCc2nnc(CCCCCCCCc3nnc(COc4ccc5ccccc5c4O)n3Nc3ccccc3)n2Nc2ccccc2)ccc2ccccc12 | 0.671 µM (active) | 8.28 µM (inactive) | 11 µM (inactive) |  | 3 µM (inactive) | 13.9 µM (inactive) | 6.43 µM (inactive) | 2.07 µM (inactive) | 0.682 µM (active) | 11.1 µM (inactive) | 9.33 µM (inactive) | 16.1 µM (inactive) | 16.2 µM (inactive) | 11.4 µM | 1.62 µM (inactive) | 7.55 µM (inactive) | 5.26 µM (inactive) | 4.21 µM (inactive) | 1.29 µM (inactive) |
| OC(CC(CC(O)(C(F)(F)F)C(F)(F)F)=NN=C(CC(O)(C(F)(F)F)C(F)(F)F)CC(O)(C(F)(F)F)C(F)(F)F)(C(F)(F)F)C(F)(F)F | > 10 µM (inactive) | > 10 µM (inactive) | > 10 µM (inactive) | > 10 µM (inactive) | > 10 µM (inactive) | > 10 µM (inactive) | > 10 µM (inactive) | > 10 µM (inactive) | > 10 µM (inactive) | > 10 µM (inactive) | > 10 µM (inactive) | > 10 µM (inactive) | > 10 µM (inactive) | > 10 µM | > 10 µM (inactive) | > 10 µM (inactive) | > 10 µM (inactive) | > 10 µM (inactive) | > 10 µM (inactive) |
| Cn1c2ccccc2n2c3ncccc3/c(=N/CCCC(=O)O)c(C#N)c12 | > 100 µM (inactive) | > 100 µM (inactive) | > 100 µM (inactive) | > 100 µM (inactive) | > 100 µM (inactive) | > 100 µM (inactive) | > 100 µM (inactive) | > 100 µM (inactive) | > 100 µM (inactive) |  | > 100 µM (inactive) | > 100 µM (inactive) | > 100 µM (inactive) | > 100 µM | > 100 µM (inactive) | > 100 µM (inactive) | > 100 µM (inactive) |  | > 100 µM (inactive) |
| COc1ccc2c(-c3ccc(O)cc3)c(Oc3ccccc3)c(=O)oc2c1 | > 24.4 µM (inactive) | 11.7 µM (inactive) | 14.2 µM (inactive) | 3.96 µM (inactive) | 14.6 µM (inactive) |  | > 28 µM (inactive) | 96.8 µM (inactive) | 2.62 µM (inactive) | 3.74 µM (inactive) | 9.44 µM (inactive) | > 31.4 µM (inactive) | 11.8 µM (inactive) | 5.04 µM | > 100 µM (inactive) | 29.9 µM (inactive) | 18.3 µM (inactive) | > 100 µM (inactive) | 3.95 µM (inactive) |
| Cc1cc2occ(S(=O)(=O)NC(=O)Nc3ccc(Cl)cc3)c(=O)c2c(=O)o1 | 23.4 µM (inactive) | > 100 µM (inactive) | > 100 µM (inactive) | > 100 µM (inactive) | > 100 µM (inactive) | > 100 µM (inactive) | > 100 µM (inactive) | > 100 µM (inactive) | > 100 µM (inactive) | > 100 µM (inactive) | > 100 µM (inactive) | > 100 µM (inactive) | > 100 µM (inactive) | 9.18 µM | > 100 µM (inactive) | > 100 µM (inactive) | > 100 µM (inactive) | > 100 µM (inactive) | > 100 µM (inactive) |
| CCn1c2ccc(C(=O)CCCN3CCCCC3)cc2c2cc(C(=O)CCCN3CCCCC3)ccc21 | 23 µM (inactive) | 1.39 µM (inactive) | 3.78 µM (inactive) | 2.4 µM (inactive) | 1.98 µM (inactive) | 4.16 µM (inactive) | 24.2 µM (inactive) | 19.3 µM (inactive) | 1.75 µM (inactive) | 2.91 µM (inactive) | 6.85 µM (inactive) | 5.7 µM (inactive) | 2.63 µM (inactive) | 1.86 µM | 2.22 µM (inactive) | 11.9 µM (inactive) | 5.94 µM (inactive) | 1.9 µM (inactive) | 1.56 µM (inactive) |
| COC(=O)Cn1cnc2c(Cl)nc(Nc3ccccc3)nc21 | 22.6 µM (inactive) | > 100 µM (inactive) | 73.3 µM (inactive) | 27.2 µM (inactive) | > 100 µM (inactive) | 28.8 µM (inactive) | > 100 µM (inactive) | 27.4 µM (inactive) | > 100 µM (inactive) | > 100 µM (inactive) | 54.3 µM (inactive) | > 100 µM (inactive) | 36.6 µM (inactive) | 21.4 µM | 30.8 µM (inactive) | > 100 µM (inactive) | 6.52 µM (inactive) | 68.7 µM (inactive) | 39 µM (inactive) |
| CN(C)CCNC(=O)Cn1cnc2cccc([N+](=O)[O-])c2c1=O | > 100 µM (inactive) | > 100 µM (inactive) | > 100 µM (inactive) | > 100 µM (inactive) | > 100 µM (inactive) | > 100 µM (inactive) | > 100 µM (inactive) | > 100 µM (inactive) | > 100 µM (inactive) | > 100 µM (inactive) | > 100 µM (inactive) | > 100 µM (inactive) | > 100 µM (inactive) | > 100 µM | > 100 µM (inactive) | > 100 µM (inactive) | > 100 µM (inactive) | > 100 µM (inactive) | > 100 µM (inactive) |
| O=C1NC(=O)C(c2c[nH]c3ccccc23)=C1c1cn(C(c2ccccc2)(c2ccccc2)c2ccccc2)cn1 | 12.5 µM (inactive) | 4.06 µM (inactive) | 4.29 µM (inactive) | 3.98 µM (inactive) | 4.06 µM (inactive) | 5.7 µM (inactive) | 7.19 µM (inactive) | 16.2 µM (inactive) | 3.13 µM (inactive) | 10.7 µM (inactive) | 10.4 µM (inactive) | 5.32 µM (inactive) | 4.52 µM (inactive) | 3.66 µM | 4.75 µM (inactive) | 5.87 µM (inactive) | 4.63 µM (inactive) | 11.2 µM (inactive) | 7.57 µM (inactive) |
| C[C@]12CCC(=O)C=C1CC[C@@H]1[C@@H]2CC[C@]2(C)C(=O)/C(=C/c3ccc([N+](=O)[O-])cc3)C[C@@H]12 | 3.36 µM (inactive) | > 100 µM (inactive) | 5.85 µM (inactive) | 8.97 µM (inactive) | 6.93 µM (inactive) | 46.3 µM (inactive) | 3.48 µM (inactive) | > 100 µM (inactive) | 5.52 µM (inactive) | > 100 µM (inactive) | 70.8 µM (inactive) | 2.3 µM (inactive) | 13.5 µM (inactive) | 10.5 µM | 6.31 µM (inactive) | > 100 µM (inactive) | 63.2 µM (inactive) | 6.59 µM (inactive) | 3.47 µM (inactive) |
| COC1=NC(NC2OCC(O)C(O)C2O)=C(NC(C)=O)CN1C (stereo not drawn) | > 100 µM (inactive) | > 100 µM (inactive) | > 100 µM (inactive) | > 100 µM (inactive) | > 100 µM (inactive) |  | > 100 µM (inactive) | > 100 µM (inactive) | > 100 µM (inactive) | > 100 µM (inactive) | > 100 µM (inactive) | > 100 µM (inactive) | > 100 µM (inactive) | > 100 µM | > 100 µM (inactive) | > 100 µM (inactive) | > 100 µM (inactive) |  | > 100 µM (inactive) |
| O=C(O)CCC(/N=C(\C(=N\C(CCC(=O)O)C(=O)O)c1ccccc1)c1ccccc1)C(=O)O (stereo not drawn) | > 100 µM (inactive) |  | > 100 µM (inactive) |  | > 100 µM (inactive) | > 100 µM (inactive) | > 100 µM (inactive) | > 100 µM (inactive) | > 100 µM (inactive) | > 100 µM (inactive) |  | > 100 µM (inactive) | > 100 µM (inactive) | > 100 µM | > 100 µM (inactive) | > 100 µM (inactive) | > 100 µM (inactive) | > 100 µM (inactive) |  |
| Cc1nnc2sc(-c3ccc([N+](=O)[O-])o3)nn12 | 10.4 µM (inactive) | 12.9 µM (inactive) | 16.4 µM (inactive) | 1.85 µM (inactive) | 15.8 µM (inactive) | 11.6 µM (inactive) | 20 µM (inactive) |  | 10.5 µM (inactive) | 15.3 µM (inactive) | 4.08 µM (inactive) | 45.5 µM (inactive) | 11.6 µM (inactive) | 5.06 µM | 5.96 µM (inactive) | 15 µM (inactive) | 12.5 µM (inactive) | 12.7 µM (inactive) | 11.8 µM (inactive) |
| CC(=O)NC1C(OCc2ccccc2)OC(CO)C(O)C1OC(C)C(=O)NC(C(=O)NC(CCC(=O)NCCCC(=O)Nc1ccc2c(c1)CN1C(=O)c3ccccc3C1=N2)C(N)=O)C(C)C (stereo not drawn) | > 100 µM (inactive) | > 100 µM (inactive) | > 100 µM (inactive) | > 100 µM (inactive) | > 100 µM (inactive) | > 100 µM (inactive) | > 100 µM (inactive) | > 100 µM (inactive) | > 100 µM (inactive) | > 100 µM (inactive) | > 100 µM (inactive) | > 100 µM (inactive) | > 100 µM (inactive) | > 100 µM | > 100 µM (inactive) |  | > 100 µM (inactive) | > 100 µM (inactive) | > 100 µM (inactive) |
